The values that follow come from patent publication US12428416B2 (California Institute of Technology, priority 2018, dated 2025).

pIC50, pKd: −log10 of the molar value. Some results are limits rather than exact numbers.

In one series the target is ERK1 (Homo sapiens, UniProt P27361). As to the kind of experiment: ERK1 and 2 Enzymatic Inhibition Assay (ERK1). It counts as biochemical. To be noted: 10 assay concentrations 2×10^−6 M to 6×10^−11 M, 1% DMSO. The method, then: (§1) ERK1 and 2 Enzymatic Inhibition Assay
ERK1, sequence (P27361 whole entry): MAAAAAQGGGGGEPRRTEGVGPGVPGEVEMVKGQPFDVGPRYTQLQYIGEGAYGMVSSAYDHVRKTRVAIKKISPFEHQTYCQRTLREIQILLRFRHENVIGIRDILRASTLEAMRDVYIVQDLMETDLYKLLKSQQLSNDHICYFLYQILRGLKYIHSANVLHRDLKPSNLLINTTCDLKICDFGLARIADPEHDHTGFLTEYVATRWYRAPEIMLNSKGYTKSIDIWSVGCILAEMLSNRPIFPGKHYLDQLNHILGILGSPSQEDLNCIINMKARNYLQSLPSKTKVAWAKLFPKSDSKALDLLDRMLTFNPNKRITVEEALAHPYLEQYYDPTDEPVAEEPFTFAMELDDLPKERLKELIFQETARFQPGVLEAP
(§2) For the Ki determination assay, 200 μM stock solutions of compounds were subjected to a serial, semi-logarithmic dilution using 100% DMSO as a solvent. 10 distinct concentrations were prepared, with a dilution endpoint of 6×10^−9 M in 100% DMSO. 100% DMSO was used as a control. 10 μL from each of the serial dilutions were aliquoted into separate wells of a 96-well plate and 90 μL of water were added to each of those wells. The plate was shaken thoroughly, and 5 μL from each of the plate's wells were transferred into wells of the assay plate. The final volume of wells in the assay plate was 50 μL. All compounds were tested at 10 assay concentrations in the range from 2×10^−6 M to 6×10^−11 M. The final DMSO concentration in the wells of the assay plate was 1% in all cases.

The target in the next series is ERK2 (Homo sapiens, UniProt P28482). The experiment in a line: ERK1 and 2 Enzymatic Inhibition Assay (ERK2). It counts as biochemical. To be noted: 10 assay concentrations 2×10^−6 M to 6×10^−11 M, 1% DMSO. The method, then:
as §1, §2

The subject of series [1] is drug-sensitive cell lines of Table 4. As to the kind of experiment: Cell line growth retardation assay, average over sensitive cohort. The series is classed as cell-based, Human. As to conditions: Homo sapiens, 144 h; geometric mean of IC50s over sensitive cohort (Table 4); 6 days growth; read-out: AvgSens IC50. The method, then: (§3) Cell Line Growth Retardation Assay
(§4) Cells were seeded at densities of 1,000-5,000 cells per well in 48-well tissue culture plates. After a 24 h rest period, cells were treated with compound at 10 μM, 2 μM, 0.4 μM, 0.08 μM, 0.016 μM, and 0.0032 μM. A group of cells were treated with the vehicle in which the compound was prepared and served as a control. The cells were grown in the presence of compounds for 6 days and were counted on day 0 and day 6. All cell counting was performed using a Synentec Cellavista plate imager. […] Growth inhibition was calculated as a ratio of cell population doublings in the presence of compound versus the absence of compound. […] IC50 values for each compound were calculated by fitting curves to data points from each dose-response assay using the Proc NLIN function in SAS for Windows version 9.2 (SAS Institute, Inc.).
(§5) Designation of Sensitivity and Resistant Cohorts and Calculation of Average IC50 Values
(§6) Human cancer cell lines were grouped as “sensitive” or “resistant” to ERK1 inhibition based on whether their growth was retarded by KO-947 (i.e., 1,5,6,8-tetrahydro-6-(phenylmethyl)-3-(4-pyridinyl)-7H-pyrazolo[4,3-g]quinazolin-7-one) and SCH772984 (i.e., (3R)-1-[2-oxo-2-[4-[4-(2-pyrimidinyl)phenyl]-1-piperazinyl]ethyl]-N-[3-(4-pyridinyl)-1H-indazol-5-yl]-3-pyrrolidinecarboxamide) (data not shown; see Table 4). These sensitive and resistant cohorts were interrogated for response to each compound, and IC50s were calculated for each cell line using the same technique described above. Average IC50s for the sensitive and resistant cohorts were calculated as geometric means of the group.

Series [2] concerns drug-resistant cell lines of Table 4. As to the kind of experiment: Cell line growth retardation assay, average over resistant cohort. The series is classed as cell-based, Human. To be noted: Homo sapiens, 144 h; geometric mean of IC50s over resistant cohort (Table 4); 6 days growth; read-out: AvgRes IC50. The method, then:
as §3, §4, §5, §6

Series [3] in a line: Compound metabolic stability in hepatocytes. It counts as in vitro ADME. To be noted: hepatocytes from mice and rats (species not given); class symbols without key. The method, then:
The metabolic stability of compounds was determined in hepatocytes from mice and rats. Compounds were diluted to 5 μM in Williams' Medium E from 10 mM stock solutions. 10 μL of each compound was aliquoted into a well of a 96-well plate and reactions were started by aliquoting 40 μL of a 625,000 cells/mL suspension into each well. The plate was incubated at 37° C. with 5% CO2. At each corresponding time point, the reaction was stopped by quenching with ACN containing internal standards (IS) at a 1:3. Plates were shaken at 500 rpm for 10 min, and then centrifuged at 3,220×g for 20 minutes. Supernatants were transferred to another 96-well plate containing a dilution solution. Supernatants were analyzed by LC/MS/MS.
Compound half-life was estimated using the following equation: % Remaining Compound=Peak Area Ratios of Tested Compound vs. Internal Standard at End Point/Peak Area Ratios of Tested Compound vs. Internal Standard at Start Point Mouse Xenograft Studies

ERK2, sequence (P28482 whole entry): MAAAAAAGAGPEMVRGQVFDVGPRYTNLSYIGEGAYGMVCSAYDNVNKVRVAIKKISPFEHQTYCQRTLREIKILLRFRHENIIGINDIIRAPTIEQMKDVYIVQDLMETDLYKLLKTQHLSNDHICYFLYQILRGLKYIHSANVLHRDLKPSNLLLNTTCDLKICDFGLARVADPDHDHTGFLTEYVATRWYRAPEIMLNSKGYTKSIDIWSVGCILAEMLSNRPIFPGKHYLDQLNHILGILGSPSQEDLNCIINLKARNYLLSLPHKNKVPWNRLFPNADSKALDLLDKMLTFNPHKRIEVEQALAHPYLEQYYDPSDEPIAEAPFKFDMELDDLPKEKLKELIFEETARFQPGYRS

One may read the pKd as −log10 of the Kd, conventionally taken in molar units. As a reminder, the pIC50 is the negative decadic logarithm of the IC50, by convention in mol/L. What is called half-life is how long it takes for the measured level to halve. On to `CC(NC(=O)c1ncc(-c2c[nH]c3ncc(N4CCOCC4)cc23)cn1)c1ccccc1` (stereo in doubt) [Compound 22, (S)-5-(5-morpholino-1H-pyrrolo[2,3-b]pyridin-3-yl)-N-(1-phenylethyl)pyrimidine-2-carboxamide], for which the negative-log Kd (pKd) at ERK1 and on ERK2 was below 7.00 throughout. Besides, the negative logarithm of the IC50 (pIC50) in series [1] and in series [2] was below 6.30 throughout. This molecule also displayed a half-life at 1 µM in series [3] above 25 min.
With `Cc1cccc(C(C)NC(=O)c2ncc(-c3c[nH]c4ncc(N5CCOCC5)cc34)cn2)c1` (stereo in doubt) [Compound 50, (R)-5-(5-morpholino-1H-pyrrolo[2,3-b]pyridin-3-yl)-N-(1-(m-tolyl)ethyl)pyrimidine-2-carboxamide], the negative logarithm of the Kd (pKd) on ERK1 and on ERK2 was at least 8.00 in each case. The values for the negative logarithm of the IC50 (pIC50) in series [1] and in series [2] were at least 6.60 and below 6.30, respectively. The molecule further displayed a half-life at 1 µM in series [3] above 25 min.
Consider `O=C(NCCc1ccccc1)c1ncc(-c2c[nH]c3ncc(N4CCOCC4)cc23)cn1` [Compound 11, 5-(5-morpholino-1H-pyrrolo[2,3-b]pyridin-3-yl)-N-phenethylpyrimidine-2-carboxamide], for which the pKd at ERK1 and at ERK2 was at least 8.00 each time. Besides, the pIC50 in series [1] is 6.30 to 6.60; in series [2], below 6.30. In series [3], this molecule gave a half-life at 1 µM below 25 min.
With `C[C@@H](NC(=O)c1ncc(-c2c[nH]c3ncc(N4CCOCC4)cc23)cn1)c1cccc(Cl)c1` [Compound 20, (R)—N-(1-(3-chlorophenyl)ethyl)-5-(5-morpholino-1H-pyrrolo[2,3-b]pyridin-3-yl)pyrimidine-2-carboxamide], the negative-log Kd (pKd) on ERK1 and on ERK2 was at least 8.00 in each case. In addition, the negative logarithm of the IC50 (pIC50) in series [1] was at least 6.60; in series [2] it was below 6.30. The half-life at 1 µM in series [3] was above 25 min.
Take `C[C@@H](NC(=O)c1ncc(-c2c[nH]c3ncc(N4CCOCC4)cc23)cn1)c1ccc(Cl)cc1` [Compound 25, (R)—N-(1-(4-chlorophenyl)ethyl)-5-(5-morpholino-1H-pyrrolo[2,3-b]pyridin-3-yl)pyrimidine-2-carboxamide]: the negative logarithm of the Kd (pKd) on ERK1 and on ERK2 was at least 8.00 each time. The negative-log IC50 (pIC50) in series [1] and in series [2] was below 6.30 each time. In series [3], the half-life at 1 µM was above 25 min.
Turning to `O=C(c1ncc(-c2c[nH]c3ncc(N4CCOCC4)cc23)cn1)N1CCCC1c1ccccn1` (stereo not drawn) [Compound 26, (5-(5-morpholino-1H-pyrrolo[2,3-b]pyridin-3-yl)pyrimidin-2-yl)(2-(pyridin-2-yl)pyrrolidin-1-yl)methanone], the pKd on ERK1 was 7.00 to 7.96; on ERK2, below 7.00. Moreover, the pIC50 in series [1] and in series [2] was below 6.30 throughout. In series [3], this molecule returned a half-life at 1 µM below 25 min.
In the case of `c1ccc([C@H]2COC(c3ncc(-c4c[nH]c5ncc(N6CCOCC6)cc45)cn3)=N2)cc1` [Compound 27, (S)-4-(3-(2-(4-phenyl-4,5-dihydrooxazol-2-yl)pyrimidin-5-yl)-1H-pyrrolo[2,3-b]pyridin-5-yl)morpholine], the pKd at ERK1 and on ERK2 was at least 8.00 throughout. For the same molecule, the negative logarithm of the IC50 (pIC50) in series [1] and in series [2] was below 6.30 in each case. Moreover, the half-life at 1 µM in series [3] was above 25 min.
Consider `c1ccc([C@@H]2COC(c3ncc(-c4c[nH]c5ncc(N6CCOCC6)cc45)cn3)=N2)cc1` [Compound 28, (R)-4-(3-(2-(4-phenyl-4,5-dihydrooxazol-2-yl)pyrimidin-5-yl)-1H-pyrrolo[2,3-b]pyridin-5-yl)morpholine], for which the pKd at ERK1 and at ERK2 was below 7.00 each time. For the same molecule, the pIC50 in series [1] and in series [2] was below 6.30 in each case. This molecule displayed a half-life at 1 µM in series [3] above 25 min.
For the molecule `c1ccc([C@@H]2CN=C(c3ncc(-c4c[nH]c5ncc(N6CCOCC6)cc45)cn3)O2)cc1` [Compound 29, (R)-4-(3-(2-(5-phenyl-4,5-dihydrooxazol-2-yl)pyrimidin-5-yl)-1H-pyrrolo[2,3-b]pyridin-5-yl)morpholine], the pKd at ERK1 and at ERK2 was 7.00 to 7.96 in each case. The pIC50 in series [1] and in series [2] was below 6.30 in each case. The molecule further yielded a half-life at 1 µM in series [3] above 25 min.
As to `C[C@H](Cc1ccccc1)NC(=O)c1ncc(-c2c[nH]c3ncc(N4CCOCC4)cc23)cn1` [Compound 31, (R)-5-(5-morpholino-1H-pyrrolo[2,3-b]pyridin-3-yl)-N-(1-phenylpropan-2-yl)pyrimidine-2-carboxamide], the pKd on ERK1 and at ERK2 was at least 8.00 throughout. Moreover, the pIC50 in series [1] and in series [2] was below 6.30 each time. In series [3], this molecule displayed a half-life at 1 µM below 25 min.
Turning to `c1ccc([C@H]2CN=C(c3ncc(-c4c[nH]c5ncc(N6CCOCC6)cc45)cn3)O2)cc1` [Compound 55, (S)-4-(3-(2-(5-phenyl-4,5-dihydrooxazol-2-yl)pyrimidin-5-yl)-1H-pyrrolo[2,3-b]pyridin-5-yl)morpholine], the negative logarithm of the Kd (pKd) on ERK1 and at ERK2 was 7.00 to 7.96 in each case. For the same molecule, the pIC50 in series [1] and in series [2] was below 6.30 each time.
Regarding `C[C@H]1N=C(c2ncc(-c3c[nH]c4ncc(N5CCOCC5)cc34)cn2)O[C@H]1c1ccccc1` [Compound 56, 4-(3-(2-((4R,5S)-4-methyl-5-phenyl-4,5-dihydrooxazol-2-yl)pyrimidin-5-yl)-1H-pyrrolo[2,3-b]pyridin-5-yl)morpholine], the pKd at ERK1 and on ERK2 was 7.00 to 7.96 each time. For the same molecule, the pIC50 in series [1] and in series [2] was below 6.30 throughout.
On to `O=C(NCCc1ccccn1)c1ncc(-c2c[nH]c3ncc(N4CCOCC4)cc23)cn1` [Compound 60, 5-(5-morpholino-1H-pyrrolo[2,3-b]pyridin-3-yl)-N-(2-(pyridin-2-yl)ethyl)pyrimidine-2-carboxamide], for which the pKd at ERK1 and on ERK2 was 7.00 to 7.96 in each case. For the same molecule, the pIC50 in series [1] and in series [2] was below 6.30 throughout.
Consider `O=C(NCCc1ccccc1Cl)c1ncc(-c2c[nH]c3ncc(N4CCOCC4)cc23)cn1` [Compound 61, N-(2-chlorophenethyl)-5-(5-morpholino-1H-pyrrolo[2,3-b]pyridin-3-yl)pyrimidine-2-carboxamide], for which the pKd at ERK1 and at ERK2 was at least 8.00 each time. Besides, the figures for the negative logarithm of the IC50 (pIC50) in series [1] and in series [2] were 6.30 to 6.60 and below 6.30, respectively.
On to `O=C(NCCc1ccc(F)cc1)c1ncc(-c2c[nH]c3ncc(N4CCOCC4)cc23)cn1` [Compound 62, N-(4-fluorophenethyl)-5-(5-morpholino-1H-pyrrolo[2,3-b]pyridin-3-yl)pyrimidine-2-carboxamide], for which the pKd on ERK1 was at least 8.00; on ERK2, 7.00 to 7.96. Besides, the pIC50 in series [1] and in series [2] was below 6.30 throughout.
Turning to `Cc1ccccc1CCNC(=O)c1ncc(-c2c[nH]c3ncc(N4CCOCC4)cc23)cn1` [Compound 65, N-(2-methylphenethyl)-5-(5-morpholino-1H-pyrrolo[2,3-b]pyridin-3-yl)pyrimidine-2-carboxamide], the pKd on ERK1 and on ERK2 was at least 8.00 in each case. In addition, the pIC50 in series [1] was at least 6.60; in series [2], below 6.30.
Regarding `N#Cc1ccccc1CCNC(=O)c1ncc(-c2c[nH]c3ncc(N4CCOCC4)cc23)cn1` [Compound 66, N-(2-cyanophenethyl)-5-(5-morpholino-1H-pyrrolo[2,3-b]pyridin-3-yl)pyrimidine-2-carboxamide], the negative logarithm of the Kd (pKd) at ERK1 and on ERK2 was at least 8.00 in each case. Besides, the pIC50 in series [1] and in series [2] was below 6.30 in each case.
